What was measured:
Assay type in all cases: cell-based
GHRHR E122A = biological target: T1, GHRHR E122A (Homo sapiens, UniProt Q02643, E122A); test: cAMP accumulation, E122A; settings: mean ± SEM, n ≥ 3
T1 construct: GHRHR(23-423)-; HA signal peptide (replaces native signal M1-G22) (N); expressed in transfected cells; host or cells: HEK 293T, pcDNA3.1, transient
From the text: (§1) Fig. 2 Molecular recognition of GHRH by GHRHR and comparison of that with LA-PTH–PTH1R and GLP-1–GLP-1R. a Detailed interaction between GHRH and the TMD pocket of GHRHR with hydrogen bonds shown as dotted lines. b, c Pairwise comparison of GHRH bound to GHRHR with GLP-1 and LA-PTH in complex with their corresponding receptors, showing the relative positions of peptide ligands. Lime green, GHRHR; blue, GHRH; red, PTH1R and LA-PTH; purple, GLP-1R and GLP-1. d–f The effects of mutation in the ligand-binding pocket on cAMP accumulation. cAMP levels were measured in wild-type (WT) receptor and alanine mutants in ECL1, 2, and 3 (d), TM1, 2, and 3 (e), and TM5, 6, and 7 (f). cAMP signals were normalized to the maximum response of WT and concentration–response curves were analyzed using a three-parameter logistic equation. Data shown are means ± S.E.M. of at least three independent experiments (n = 3–5), conducted in triplicate. Source data are provided as a Source data file.
(§2) GHRH-stimulated cAMP accumulation was measured by a LANCE Ultra cAMP kit (PerkinElmer). […] After 1 h RT incubation, TR-FRET signals (excitation: 320 nm, emission: 615 and 665 nm) were measured by an EnVision (PerkinElmer).

GHRHR(23-423) (WT) = biological target: T2, GHRHR(23-423) (WT) (Homo sapiens, UniProt Q02643); test: cAMP accumulation, construct GHRHR(23-423) (WT) (Supplementary Fig. 2b); settings: HEK 293T; mean ± SEM, n = 8-10
T2 construct: 24 h after transfection with GHRHR(23-423), GHRHR(23-405), GHRHR(23-405)-LgBiT-2MBP, or HA-Flag-GHRHR (WT and mutants); HA signal peptide (replaces native signal M1-G22) (N); expressed in transfected cells; host or cells: HEK 293 T
T2 sequence (Q02643 23-423): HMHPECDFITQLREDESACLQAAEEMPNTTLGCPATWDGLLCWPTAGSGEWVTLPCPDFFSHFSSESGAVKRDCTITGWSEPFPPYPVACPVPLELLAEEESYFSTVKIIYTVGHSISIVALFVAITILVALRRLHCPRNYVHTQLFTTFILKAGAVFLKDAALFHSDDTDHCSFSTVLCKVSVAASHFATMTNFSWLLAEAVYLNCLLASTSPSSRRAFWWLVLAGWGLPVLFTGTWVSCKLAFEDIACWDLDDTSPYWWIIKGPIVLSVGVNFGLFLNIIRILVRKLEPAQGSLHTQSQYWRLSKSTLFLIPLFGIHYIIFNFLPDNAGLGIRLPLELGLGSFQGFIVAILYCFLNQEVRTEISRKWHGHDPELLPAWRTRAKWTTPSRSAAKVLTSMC
Protocol: (§3) GHRH-stimulated cAMP accumulation was measured by a LANCE Ultra cAMP kit (PerkinElmer). Briefly, 24 h after transfection with GHRHR(23-423), GHRHR(23-405), GHRHR(23-405)-LgBiT-2MBP, or HA-Flag-GHRHR (WT and mutants), HEK 293 T cells (3000/well in 384-well white plates, PerkinElmer) were digested by 0.2% (w/v) EDTA and 5 μL stimulation buffer (HBSS supplemented with 5 mM HEPES, 0.5 mM IBMX, and 0.1% (w/v) BSA, pH 7.4). Different concentrations (5 μL) of GHRH were then added and the stimulation lasted for 30 min at RT. The reaction was stopped by adding 5 μL Eu-cAMP tracer and 5 μL ULight-anti-cAMP. After 1 h RT incubation, TR-FRET signals (excitation: 320 nm, emission: 615 and 665 nm) were measured by an EnVision (PerkinElmer).
(§4) 223 Supplementary Ta b l e 1. Effects of GHRH-mediated cAMP accumulation.
(§5) Receptor cAMP Cell surface expression Binding
(§6) pEC50 Emax (% WT) (% WT) pIC50 […]
(§7) 225 to determine pEC50 and Emax values. pEC50 is the negative logarithm of the molar
(§8) 226 concentration of agonist that induced half the maximal response. Cell surface […]
(§9) 228 Flag antibody (Sigma-Aldrich, 1:300); Donkey anti-Mouse Alexa Fluor 488-
(§10) 229 conjugated secondary antibody, (ThermoFisher Scientific, 1:1000)] on the […]
(§11) 231 Binding data were analyzed using a three-parameter logistic equation to […]
(§12) 234 determine statistical difference. *P<0.01; ND, not determined.

GHRHR R357A = biological target: T3, GHRHR R357A (Homo sapiens, UniProt Q02643, R357A); test: cAMP accumulation, R357A; settings: mean ± SEM, n ≥ 3
T3 construct: GHRHR(23-423)-; HA signal peptide (replaces native signal M1-G22) (N); expressed in transfected cells; host or cells: HEK 293 T
T3 sequence (Q02643 23-423 R357A): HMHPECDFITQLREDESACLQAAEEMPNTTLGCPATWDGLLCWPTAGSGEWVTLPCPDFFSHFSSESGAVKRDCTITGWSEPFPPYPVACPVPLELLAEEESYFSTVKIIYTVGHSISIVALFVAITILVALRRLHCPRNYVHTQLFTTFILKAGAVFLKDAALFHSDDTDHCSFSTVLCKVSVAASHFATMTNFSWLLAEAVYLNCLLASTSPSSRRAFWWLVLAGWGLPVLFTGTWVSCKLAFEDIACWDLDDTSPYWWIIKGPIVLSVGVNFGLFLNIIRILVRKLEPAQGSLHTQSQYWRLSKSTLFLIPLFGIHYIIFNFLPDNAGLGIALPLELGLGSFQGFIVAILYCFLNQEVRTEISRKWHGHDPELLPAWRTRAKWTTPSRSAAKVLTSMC
From the text: as §1, §2

GHRHR D276A = biological target: T4, GHRHR D276A (Homo sapiens, UniProt Q02643, D276A); test: cAMP accumulation, D276A; settings: mean ± SEM, n ≥ 3
T4 construct: GHRHR(23-423)-; HA signal peptide (replaces native signal M1-G22) (N); expressed in transfected cells; host or cells: HEK 293T, pcDNA3.1, transient
T4 sequence (Q02643 23-423 D276A): as the sequence (Q02643 23-423 R357A) above, with D254A, A335R counted along it
From the text: as §1, §2

GHRHR K182A = biological target: T5, GHRHR K182A (Homo sapiens, UniProt Q02643, K182A); test: cAMP accumulation, K182A; settings: mean ± SEM, n ≥ 3
T5 construct: GHRHR(23-423)-; HA signal peptide (replaces native signal M1-G22) (N); expressed in transfected cells; host or cells: HEK 293T, pcDNA3.1, transient
T5 sequence (Q02643 23-423 K182A): as the sequence (Q02643 23-423 R357A) above, with K160A, A335R counted along it
From the text: as §1, §2

GHRHR(23-405) = biological target: T6, GHRHR(23-405) (Homo sapiens, UniProt Q02643); test: cAMP accumulation, construct GHRHR(23-405) (Supplementary Fig. 2b); settings: HEK 293T; mean ± SEM, n = 8-10
T6 construct: 24 h after transfection with GHRHR(23-423), GHRHR(23-405), GHRHR(23-405)-LgBiT-2MBP, or HA-Flag-GHRHR (WT and mutants); HA signal peptide (replaces native signal M1-G22) (N); expressed in transfected cells; host or cells: HEK 293 T
Protocol: as §3, §4, §5, §6, §7, §8, §9, §10, §11, §12

GHRHR A271R = biological target: T7, GHRHR A271R (Homo sapiens, UniProt Q02643, A271R); test: cAMP accumulation, A271R; settings: mean ± SEM, n ≥ 3
T7 construct: GHRHR(23-423)-; HA signal peptide (replaces native signal M1-G22) (N); expressed in transfected cells; host or cells: HEK 293T, pcDNA3.1, transient
T7 sequence (Q02643 23-423 A271R): as the sequence (Q02643 23-423 R357A) above, with A249R, A335R counted along it
From the text: as §1, §2

[1] = biological target: T8, GHRHR wild-type (HA-Flag-GHRHR) (Homo sapiens, UniProt Q02643); test: GHRH-stimulated cAMP accumulation (LANCE), HEK 293T; settings: LANCE Ultra cAMP TR-FRET, 30 min RT, mean ± SEM, n ≥ 3
T8 construct: GHRHR(23-423) (WT); HA signal peptide (replaces native signal M1-G22) (N); expressed in transfected cells; host or cells: HEK 293T, pcDNA3.1, transient
From the text: as §1
GHRH-stimulated cAMP accumulation was measured by a LANCE Ultra cAMP kit (PerkinElmer). […] After 1 h RT incubation, TR-FRET signals (excitation: 320 nm, emission: 615 and 665 nm) were measured by an EnVision (PerkinElmer). […]
245 to determine pEC50 and Emax values. Emax values for mutants are expressed as a
246 percentage of the wild-type (WT). Cell surface expression was assessed by FACS to […]

T1 sequence (Q02643 23-423 E122A): as the sequence (Q02643 23-423 R357A) above, with E100A, A335R counted along it

For CC[C@H](C)[C@H](NC(=O)[C@H](C)NC(=O)[C@H](CC(=O)O)NC(=O)[C@H](C)NC(=O)[C@@H](N)Cc1ccc(O)cc1)C(=O)N[C@@H](Cc1ccccc1)C(=O)N[C@H](C(=O)N[C@@H](CC(N)=O)C(=O)N[C@@H](CO)C(=O)N[C@@H](Cc1ccc(O)cc1)C(=O)N[C@@H](CCCNC(=N)N)C(=O)N[C@@H](CCCCN)C(=O)N[C@H](C(=O)N[C@@H](CC(C)C)C(=O)NCC(=O)N[C@@H](CCC(N)=O)C(=O)N[C@@H](CC(C)C)C(=O)N[C@@H](CO)C(=O)N[C@@H](C)C(=O)N[C@@H](CCCNC(=N)N)C(=O)N[C@@H](CCCCN)C(=O)N[C@@H](CC(C)C)C(=O)N[C@@H](CC(C)C)C(=O)N[C@@H](CCC(N)=O)C(=O)N[C@@H](CC(=O)O)C(=O)N[C@H](C(=O)N[C@@H](CCSC)C(=O)N[C@@H](CO)C(=O)N[C@@H](CCCNC(=N)N)C(=O)N[C@@H](CCC(N)=O)C(=O)N[C@@H](CCC(N)=O)C(=O)NCC(=O)N[C@@H](CCC(=O)O)C(=O)N[C@@H](CO)C(=O)N[C@@H](CC(N)=O)C(=O)N[C@@H](CCC(N)=O)C(=O)N[C@@H](CCC(=O)O)C(=O)N[C@@H](CCCNC(=N)N)C(=O)NCC(=O)N[C@@H](C)C(=O)N[C@@H](CCCNC(=N)N)C(=O)N[C@@H](C)C(=O)N[C@@H](CCCNC(=N)N)C(=O)N[C@@H](CC(C)C)C(N)=O)[C@@H](C)CC)C(C)C)[C@@H](C)O [GHRH, Growth hormone-releasing hormone], the EC50 (GHRHR E122A) was 0.11 nM, the Emax (GHRHR E122A) was 98.38±3.26 % WT and the EC50 (GHRHR(23-423) (WT)) was 0.631 nM. It also gave an Emax (GHRHR(23-423) (WT)) of 100 % WT, an EC50 (GHRHR R357A) of 135 nM and an Emax (GHRHR R357A) of 60.05±5.19 % WT. The EC50 (GHRHR D276A) was 0.331 nM, the Emax (GHRHR D276A) was 102.04±0.51 % WT and the EC50 (GHRHR K182A) was 39.8 nM. It also gave an Emax (GHRHR K182A) of 100.02±1.40 % WT, an EC50 (GHRHR(23-405)) of 0.871 nM and an Emax (GHRHR(23-405)) of 120.55±1.97 % WT. It also gave an EC50 (GHRHR A271R) of 0.105 nM, an Emax (GHRHR A271R) of 100.81±1.19 % WT and an EC50 ([1]; 0.5 mM IBMX) of 0.182 nM. The Emax [1] was 100 % WT.
